Source: patent US11116735B2, “Use of substituted benzylideneguanidine derivatives as synergists for polymyxin antibiotics” (GUANGZHOU INSIGHTER BIOTECHNOLOGY CO., LTD., priority 2015, dated 2021)
“And” between values parts separate entries of the source, which are not always exact repeats. Equal values may be shown once.

Tests used:
[1] = test system: E. coli 4D-6; test: MIC by doubling dilution, colistin sulfate-resistant E. coli 4D-6; conditions: E. coli 4D-6, colistin sulfate-resistant; substance alone; derivatives as hydrochlorides
Method: (§3) In vitro minimum inhibitory concentrations of colistin sulfate against the strains where the cultures respectively comprised 20.0 ppm of the substituted benzylideneguanidine derivatives were also measured.

[2] = test system: E. coli 5W-7; test: MIC by doubling dilution, colistin sulfate-susceptible E. coli 5W-7; type: cell-based, Escherichia coli; conditions: E. coli 5W-7, colistin sulfate-susceptible; substance alone; derivatives as hydrochlorides
[3] = test system: Shigella sp. 2D89; test: MIC, resistance reversal by various concentrations of compound 3, Shigella sp. 2D89; conditions: colistin sulfate with 0 ppm compound 3, or compound 3 (hydrochloride) in the absence of colistin sulfate
Method: (§4) The compound 3 in this embodiment was in the form of a hydrochloride, i.e., the experiments were carried out with a hydrochloride of compound 3.
(§5) In vitro minimum inhibitory concentrations of colistin sulfate against the strains where the cultures respectively comprised various concentrations of compound 3 were also measured.

[4] = test system: fast-growing yellow feather broilers; test: Combined application of compound 3 and colistin sulfate in chicken feed; type: in vivo; conditions: broilers, 50 ppm colistin sulfate in feed, 28-day experiment
Method: (§1) 800 1-day-aged fast-growing yellow feather broilers were divided into 4 groups, 4 parallels in each group and 50 broilers in each parallel. For each group, colistin sulfate and/or compound 3 were added into the feed. The chicken were kept in cages and given ad libitum access to feed and water during a 28-day experiment. Synergy of compound 3 and colistin sulfate on the chicken in the weight gain and feed efficiency was observed from the result (see Table 10).

[5] = test system: E. coli 5F-1; test: MIC, resistance reversal by various concentrations of compound 3, E. coli 5F-1; conditions: colistin sulfate with 0 ppm compound 3, or compound 3 (hydrochloride) in the absence of colistin sulfate
Method: as §4, §5

[6] = test system: E. coli 3B-24; test: MIC by doubling dilution, colistin sulfate-susceptible E. coli 3B-24; type: cell-based, Escherichia coli; conditions: E. coli 3B-24, colistin sulfate-susceptible; substance alone; derivatives as hydrochlorides
[7] = test system: E. coli 3Y-9; test: MIC by doubling dilution, colistin sulfate-susceptible E. coli 3Y-9; type: cell-based, Escherichia coli; conditions: E. coli 3Y-9, colistin sulfate-susceptible; substance alone; derivatives as hydrochlorides
[8] = test system: colistin sulfate-resistant E. coli strains; test: MIC by doubling dilution, summary over colistin sulfate-resistant strains; conditions: bound that characterises the tested resistant E. coli strains
Method: as §3

[9] = test system: Klebsiella sp. 4125; test: MIC, resistance reversal by various concentrations of compound 3, Klebsiella sp. 4125; conditions: colistin sulfate with 0 ppm compound 3, or compound 3 (hydrochloride) in the absence of colistin sulfate
Method: as §4, §5

[10] = test system: weanling piglets; test: Synergy of derivatives and colistin sulfate in the feed for weanling piglets; type: in vivo, Duroc×Landrace×Large crossbred lean weanling piglets; conditions: creep feed with only 20 ppm colistin sulfate (control group), ten days
Method: (§2) 90 28-day-aged Duroc×Landrace×Large crossbred lean weanling piglets similar in weight were divided into 9 groups, 10 piglets in each group. For each group, colistin sulfate and/or various substituted benzylideneguanidine derivatives were added into the antibiotic-free creep feed. The piglets were given ad libitum access to feed and water during the experiment. Weight gain, feed efficiency and diarrhea rate of each group within ten days were recorded.

[11] = test system: colistin sulfate-susceptible Escherichia coli strains; test: MIC by doubling dilution, summary over colistin sulfate-susceptible strains; type: cell-based; conditions: bound that characterises the tested susceptible E. coli strains
[12] = test system: various colistin sulfate-resistant Gram-negative bacteria; test: MIC by doubling dilution, summary over resistant species; conditions: bound that characterises the tested resistant strains
Method: as §4, §5

[13] = test system: E. coli 2S-19; test: MIC by doubling dilution, colistin sulfate-susceptible E. coli 2S-19; type: cell-based, Escherichia coli; conditions: E. coli 2S-19, colistin sulfate-susceptible; substance alone; derivatives as hydrochlorides
[14] = test system: E. coli 2G-7; test: MIC by doubling dilution, colistin sulfate-resistant E. coli 2G-7; conditions: E. coli 2G-7, colistin sulfate-resistant; substance alone; derivatives as hydrochlorides
Method: as §3

[15] = test system: weanling piglets; test: Synergy of compound 3 and colistin sulfate in the feed for weanling piglets; type: in vivo, Duroc×Landrace×Large crossbred lean weanling piglets; conditions: weanling piglets, only 20 ppm colistin sulfate in creep feed (Control 1, groups 4-6), ten days
Method: as §2, with “120” for “90”, “12” for “9”, “compound 3” for “various substituted benzylideneguanidine derivatives”

[16] = test system: E. coli 5F-1; test: MIC by doubling dilution, colistin sulfate-resistant E. coli 5F-1; conditions: E. coli 5F-1, colistin sulfate-resistant; substance alone; derivatives as hydrochlorides
Method: as §3

[17] = test system: cherry valley ducks; test: Combined application of compound 3 and colistin sulfate in duck feed; type: in vivo; conditions: 40 ppm colistin sulfate in feed, 21-day experiment
Method: as §1, with “cherry valley ducks” for “fast-growing yellow feather broilers”, “groups according to Table 10,” for “groups,”, “ducks” for “broilers”, “ducks” for “chicken”, “21-day” for “28-day”, “11).” for “10).”

[18] = test system: E. coli 3H-4; test: MIC by doubling dilution, colistin sulfate-resistant E. coli 3H-4; conditions: E. coli 3H-4, colistin sulfate-resistant; substance alone; derivatives as hydrochlorides
Method: as §3

[19] = test system: P. aeruginosa E543; test: MIC, resistance reversal by various concentrations of compound 3, P. aeruginosa E543; conditions: colistin sulfate with 0 ppm compound 3, or compound 3 (hydrochloride) in the absence of colistin sulfate
Method: as §4, §5

[20] = test system: weanling piglets; test: Compound 3 in various dosages and colistin sulfate in the feed for weanling piglets; type: in vivo, Duroc×Landrace×Large crossbred lean weanling piglets; conditions: weanling piglets, only 20 ppm colistin sulfate in creep feed (control group), ten days
Method: as §2, with “dosages of compound 3” for “substituted benzylideneguanidine derivatives”

Substance: colistin sulfate [reference compound]
- In vitro minimum inhibitory concentration (MIC) of the substance alone [1]: 256 ppm and 256.0 ppm
- In vitro minimum inhibitory concentration (MIC) of the substance alone [2]: 1.0 ppm and 1.00 ppm
- In vitro MIC of the substance alone [3]: 32.00 ppm
- Average daily weight gain [4]: 39.8 g
- Feed conversion ratio [4]: 1.965
- Survival rate [4]: 100%
- In vitro MIC of the substance alone [5]: 128.00 ppm
- In vitro minimum inhibitory concentration (MIC) of the substance alone [6]: 2.0 ppm and 2.00 ppm
- In vitro minimum inhibitory concentration (MIC) of the substance alone [7]: 2.0 ppm and 2.00 ppm
- MIC value of colistin sulfate against the resistant strains [8]: higher than 4.0 ppm
- In vitro MIC of the substance alone [9]: 64.00 ppm
- Average daily weight gain [10]: 219 g
- Diarrhea rate [10]: 33%
- Feed conversion ratio [10]: 1.649
- MIC value of colistin sulfate against the susceptible strains [11]: lower than 4.0 ppm
- MIC value of colistin sulfate against the resistant Gram-negative bacteria [12]: higher than 4.0 ppm
- In vitro minimum inhibitory concentration (MIC) of the substance alone [13]: 2.0 ppm and 2.00 ppm
- In vitro minimum inhibitory concentration (MIC) of the substance alone [14]: 64 ppm and 64.0 ppm
- Average daily weight gain [15]: 215 g and 208 g and 217 g
- Diarrhea rate [15]: 31% and 29% and 33%
- Feed conversion ratio [15]: 1.654 and 1.598 and 1.623
- In vitro minimum inhibitory concentration (MIC) of the substance alone [16]: 128 ppm and 128.0 ppm
- Average daily weight gain [17]: 50.1 g
- Feed conversion ratio [17]: 1.945
- Survival rate [17]: 100%
- In vitro minimum inhibitory concentration (MIC) of the substance alone [18]: 64 ppm and 64.0 ppm
- In vitro MIC of the substance alone [19]: 64.00 ppm
- Average daily weight gain [20]: 211 g
- Diarrhea rate [20]: 33%
- Feed conversion ratio [20]: 1.672
